Legend:
[1] = target: T1, human FXR alpha ligand binding domain (Homo sapiens, UniProt Q96RI1); experiment: FRET activity assay (ligand mediated cofactor peptide interaction, LANCE); format: biochemical; settings: GST-FXR-LBD / biotinylated SRC-1 peptide (676-700), read-out: F EC50
T1 construct: made in house; host or cells: E. coli BL21(DE3), vector pDEST15
T1 sequence (Q96RI1 187-472 isoform Q96RI1-2): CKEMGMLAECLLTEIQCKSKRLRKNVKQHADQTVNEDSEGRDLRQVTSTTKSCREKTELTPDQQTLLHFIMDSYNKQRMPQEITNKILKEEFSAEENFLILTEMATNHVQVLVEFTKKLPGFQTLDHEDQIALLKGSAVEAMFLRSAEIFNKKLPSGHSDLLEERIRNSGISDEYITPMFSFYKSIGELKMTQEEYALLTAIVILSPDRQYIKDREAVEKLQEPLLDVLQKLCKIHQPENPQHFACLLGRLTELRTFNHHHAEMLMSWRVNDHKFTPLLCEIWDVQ
Experimental: Determination of a ligand mediated cofactor peptide interaction to quantify ligand binding to the nuclear receptor FXR was performed as follows: Preparation of human FXR alpha ligand binding domain: The human FXRalpha LBD was expressed in E. coli strain BL21(DE3) as an N-terminally GST tagged fusion protein. The DNA encoding the FXR ligand binding domain was cloned into vector pDEST15 (Invitrogen). Expression was under control of an IPTG inducible T7 promoter. The amino acid boundaries of the ligand binding domain were amino acids 187-472 of Database entry NM_005123 (RefSeq). Expression and purification of the FXR-LBD: An overnight preculture of a transformed E. coli strain was diluted 1:20 in LB-Ampicillin medium and grown at 30° C. to an optical density of OD600=0.4-0.6. Gene expression was then induced by addition of 0.5 mM IPTG. Cells were incubated an additional 6 h at 30° C., 180 rpm. Cells were collected by centrifugation (7000×g, 7 min, rt). Per liter of original cell culture, cells were resuspended in 10 mL lysis buffer (50 mM Glucose, 50 mM Tris pH 7.9, 1 mM EDTA and 4 mg/mL lysozyme) and left on ice for 30 min. Cells were then subjected to sonication and cell debris removed via centrifugation (22000×g, 30 min, 4° C.). Per 10 mL of supernatant 0.5 mL prewashed Glutathione 4B sepharose slurry (Qiagen) was added and the suspension kept slowly rotating for 1 h at 4° C. Glutathione 4B sepharose beads were pelleted by centrifugation (2000×g, 15 sec, 4° C.) and washed twice in wash buffer (25 mM Tris, 50 mM KCl, 4 mM MgCl2 and 1M NaCl). The pellet was resuspended in 3 mL elution buffer per liter of original culture (elution buffer: 20 mM Tris, 60 mM KCl, 5 mM MgCl2 and 80 mM glutathione added immediately prior to use as powder). The suspension was left rotating for 15 min at 4° C., the beads pelleted and eluted again with half the volume of elution buffer than the first time. The eluates were pooled and dialysed overnight in 20 mM Hepes buffer (pH 7.5) containing 60 mM KCl, 5 mM MgCl2 as well as 1 mM dithiothreitol and 10% (v/v) glycerol. The protein was analysed by SDS-Page.
The method measures the ability of putative ligands to modulate the interaction between the purified bacterial expressed FXR ligand binding domain (LBD) and a synthetic biotinylated peptide based on residues 676-700 of SRC-1 (LCD2, 676-700). The sequence of the peptide used was B—[…]—COOH where the N-terminus was biotinylated (B). The ligand binding domain (LBD) of FXR was expressed as fusion protein with GST in BL-21 cells using the vector pDEST15. Cells were lysed by sonication, and the fusion proteins purified over glutathione sepharose (Pharmacia) according to the manufacturers instructions. For screening of compounds for their influence on the FXR-peptide interaction, the Perkin Elmer LANCE technology was applied. This method relies on the binding dependent energy transfer from a donor to an acceptor fluorophor attached to the binding partner of interest. For ease of handling and reduction of background from compound fluorescence LANCE technology makes use of generic fluorophore labels and time resolved detection Assays were done in a final volume of 25 μL in a 384 well plate, in a Tris-based buffer (20 mM Tris-HCl pH 7.5; 60 mM KCl, 5 mM MgCl2; 35 ng/μL BSA), containing 20-60 ng/well recombinantly expressed FXR-LBD fused to GST, 200-600 nM N-terminally biotinylated peptide, representing SRC1 aminoacids 676-700, 200 ng/well Streptavidin-xIAPC conjugate (Prozyme) and 6-10 ng/well Eu W1024-antiGST (Perkin Elmer). DMSO content of the samples was kept at 1%. After generation of the assay mix and diluting the potentially FXR modulating ligands, the assay was equilibrated for 1 h in the dark at rt in FIA-plates black 384 well (Greiner). The LANCE signal was detected by a Perkin Elmer VICTOR2VTM Multilabel Counter. The results were visualized by plotting the ratio between the emitted light at 665 and 615 nm. […]

[2] = target: T2, FXR ligand binding domain (Homo sapiens, UniProt Q96RI1); experiment: Mammalian One Hybrid (M1H) assay, Gal4 promoter driven transactivation in HEK293 cells; format: cell-based; settings: Gal4-FXR-LBD luciferase reporter, 16 h
T2 construct: expressed in transfected cells; host or cells: HEK293 cells, transiently transfected with pCMV-BD-FXR-LBD, pFR-Luc and pRL-CMV
T2 sequence (Q96RI1 187-472 isoform Q96RI1-2): T1 sequence (Q96RI1 187-472 isoform Q96RI1-2)
Experimental: Mammalian One Hybrid (M1H) Assay
Determination of a ligand mediated Gal4 promoter driven transactivation to quantify ligand binding mediated activation of FXR was performed as follows: The cDNA part encoding the FXR ligand binding domain was cloned into vector pCMV-BD (Stratagene) as a fusion to the yeast GAL4 DNA binding domain under the control of the CMV promoter. The amino acid boundaries of the ligand binding domain were amino acids 187-472 of Database entry NM_005123 (RefSeq). The plasmid pFR-Luc (Stratagene) was used as the reporter plasmid, containing a synthetic promoter with five tandem repeats of the yeast GAL4 binding sites, driving the expression of the Photinus pyralis (American firefly) luciferase gene as the reporter gene. In order to improve experimental accuracy the plasmid pRL-CMV (Promega) was cotransfected. pRL-CMV contains the constitutive CMV promoter, controlling the expression of the Renilla reniformis luciferase. All Gal4 reporter gene assays were done in HEK293 cells (obtained from DSMZ, Braunschweig, Germany) grown in MEM with L-Glutamine and Earle's BSS supplemented with 10% fetal bovine serum, 0.1 mM nonessential amino acids, 1 mM sodium pyruvate, and 100 units Penicilin/[…] per mL at 37° C. in 5% CO2. Medium and supplements were obtained from Invitrogen. For the assay, […] cells were plated per well in 96 well plates in 100 μL per well MEM without Phenol Red and L-Glutamine and with Earle's BSS supplemented with 10% charcoal/dextran treated FBS (HyClone, South Logan, Utah), 0.1 mM nonessential amino acids, 2 mM glutamine, 1 mM sodium pyruvate, and 100 units Penicilin/[…] per mL, incubated at 37° C. in 5% CO2. The following day the cells were >90% confluence. Medium was removed and cells were transiently transfected using 20 μL per well of a OptiMEM—polyethylene-imine-based transfection-reagent (OptiMEM, Invitrogen; Polyethyleneimine, Aldrich Cat No. 40,827-7) including the three plasmids described above. MEM with the same composition as used for plating cells was added 2-4 h after addition of transfection mixture. Then compound stocks, prediluted in MEM were added (final vehicle concentration not exceeding 0.1%). Cells were incubated for additional 16 h before firefly and renilla luciferase activities were measured sequentially in the same cell extract using a Dual-Light-Luciferase-Assay system (Dyer et al., Anal. Biochem. 2000, 282, 158-161). All experiments were done in triplicates.

Row | Structure (SMILES) | EC50 [1] [nM] | EC50 [2] [nM]
1 | O=C(O)c1cc(F)c2nc([C@]3(O)CC4CC3CC4OCc3c(-c4c(Cl)cccc4Cl)noc3C3CC3)sc2c1 (single isomer, unassigned) [Example 11-48] | 46 | 190
2 | O=C(O)c1ccnc2ccc([C@]3(O)CC[C@H](OCc4c(-c5c(Cl)cccc5Cl)noc4C4CC4)CC3)cc12 [Example 31, 6-((1r,4r)-4-((5-cyclopropyl-3-(2,6-dichlorophenyl)isoxazol-4-yl)methoxy)-1-hydroxycyclohexyl)quinoline-4-carboxylic acid] | 4900 | > 3000
3 | O=C(O)c1cc2sc([C@]3(O)CC[C@@H](OCc4c(-c5ccccc5OC(F)F)noc4C4CC4)CC3)nc2cc1F [Example 11-19, 2-((1s,4s)-4-((5-Cyclopropyl-3-(2-(difluoromethoxy)phenyl)isoxazol-4-yl)methoxy)-1-hydroxycyclohexyl)-5-fluorobenzo[d]thiazole-6-carboxylic acid] | 570 | 2500
4 | O=C(O)c1cccc2nc([C@]3(O)CC[C@@H](OCc4c(-c5c(Cl)cccc5Cl)noc4C4CC4)CC3)ccc12 [Example 11-44, 2-((1s,4s)-4-((5-Cyclopropyl-3-(2,6-dichlorophenyl)isoxazol-4-yl)methoxy)-1-hydroxycyclohexyl)quinoline-5-carboxylic acid] | 49 | 120
5 | O[C@]1(c2nc3c(F)cc(-c4nnn[nH]4)cc3s2)CC[C@H](OCc2c(-c3c(Cl)cccc3Cl)noc2C2CC2)CC1 [Example 21, (1s,4s)-4-((5-Cyclopropyl-3-(2,6-dichlorophenyl)isoxazol-4-yl)methoxy)-1-(4-fluoro-6-(1H-tetrazol-5-yl)benzo[d]thiazol-2-yl)cyclohexanol] | 64 | 1700
6 | O[C@@]1(c2nc3ccccc3s2)[C@@H]2CC3C[C@H]1C[C@](OCc1c(-c4c(Cl)cccc4Cl)noc1C1CC1)(C3)C2 [Example 24b, (1R,2s,3S,5s,7s)-2-(benzo[d]thiazol-2-yl)-5-((5-cyclopropyl-3-(2,6-dichlorophenyl)isoxazol-4-yl)methoxy)adamantan-2-ol] | 240 | 730

Further lines, results first:

Row | EC50 [1] [nM] | EC50 [2] [nM] | Structure (SMILES)
7 | 31 | 58 | N#Cc1ccc2nc([C@]3(O)[C@@H]4CC[C@H]3C[C@H](OCc3c(-c5c(Cl)cccc5Cl)noc3C3CC3)C4)sc2c1 [Example 8-5, 2-((1R,3s,5S,8r)-3-((5-Cyclopropyl-3-(2,6-dichlorophenyl)isoxazol-4-yl)methoxy)-8-hydroxybicyclo[3.2.1]octan-8-yl)benzo[d]thiazole-6-carbonitrile]
8 | 360 | 430 | Cc1cccc(C)c1-c1noc(C2CC2)c1CO[C@H]1CC[C@](O)(c2nc3ccc(C(=O)O)cc3s2)CC1 [Example 11-12, 2-((1s,4s)-4-((5-Cyclopropyl-3-(2,6-dimethylphenyl)isoxazol-4-yl)methoxy)-1-hydroxycyclohexyl)benzo[d]thiazole-6-carboxylic acid]
9 | 120 | 380 | O=C(O)c1ccc2nc(C3(O)CC4(CC(OCc5c(-c6c(Cl)cccc6Cl)noc5C5CC5)C4)C3)sc2c1 (single isomer, unassigned) [Example 11-4b, 2-(6-((5-Cyclopropyl-3-(2,6-dichlorophenyl)isoxazol-4-yl)methoxy)-2-hydroxyspiro[3.3]heptan-2-yl)benzo[d]thiazole-6-carboxylic acid]
10 | 3.7 | 1.6 | O=C(O)c1ccc2nc([C@]3(O)[C@@H]4CC[C@H]3C[C@H](OCc3c(-c5c(Cl)cccc5Cl)noc3C3CC3)C4)sc2c1 [Example 11-22, 2-((1R,3s,5S,8r)-3-((5-cyclopropyl-3-(2,6-dichlorophenyl)isoxazol-4-yl)methoxy)-8-hydroxybicyclo[3.2.1]octan-8-yl)benzo[d]thiazole-6-carboxylic acid]
11 | 25 | 550 | O=C(O)c1ccc2nc([C@]3(O)CC[C@@H](OCc4c(-c5c(Cl)cccc5Cl)noc4C4CC4)CC3)sc2c1F [Example 14-1, 2-((1s,4s)-4-((5-Cyclopropyl-3-(2,6-dichlorophenyl)isoxazol-4-yl)methoxy)-1-hydroxycyclohexyl)-7-fluorobenzo[d]thiazole-6-carboxylic acid]
12 | 12 | 99 | O=C(O)c1ccc(C2(O)C[C@H]3CC(OCc4c(-c5c(Cl)cccc5Cl)noc4C4CC4)C[C@H]3C2)c(F)c1 (stereo partly drawn) [Example 11-47, 4-((3aR,6aS)-5-((5-Cyclopropyl-3-(2,6-dichlorophenyl)isoxazol-4-yl)methoxy)-2-hydroxyoctahydropentalen-2-yl)-3-fluorobenzoic acid]
13 | 40 | 51 | O=C(O)c1ccnc([C@]2(O)CC[C@@H](OCc3c(-c4c(Cl)cccc4Cl)noc3C3CC3)CC2)c1 [Example 11-6, 2-((1s,4s)-4-((5-Cyclopropyl-3-(2,6-dichlorophenyl)isoxazol-4-yl)methoxy)-1-hydroxycyclohexyl)isonicotinic acid]
